Key:
Format in all cases: functional
[1] = tested on: BT-549; assay: Growth inhibition of human BT549 cells assessed as cell growth at 10^-7 M by sulforhodamine B assay; settings: read-out: Activity
[2] = tested on: BT-549; assay: Growth inhibition of human BT549 cells by sulforhodamine B assay
[3] = tested on: SW-620; assay: Growth inhibition of human SW620 cells assessed as cell growth at 10 uM by sulforhodamine B assay; settings: read-out: Activity
[4] = tested on: OVCAR-4; assay: Growth inhibition of human OVCAR4 cells assessed as cell growth at 10^-7 M by sulforhodamine B assay; settings: read-out: Activity
[5] = tested on: SK-MEL-2; assay: Growth inhibition of human SK-MEL-2 cells assessed as growth inhibition at 10 uM by sulforhodamine B assay; settings: read-out: GI
[6] = tested on: OVCAR-5; assay: Growth inhibition of human OVCAR5 cells assessed as growth inhibition at 10 uM by sulforhodamine B assay; settings: read-out: GI
[7] = tested on: T47D; assay: Growth inhibition of human T47D cells assessed as growth inhibition at 10 uM by sulforhodamine B assay; settings: read-out: GI
[8] = tested on: T47D; assay: Growth inhibition of human T47D cells assessed as cell growth at 10^-4 M by sulforhodamine B assay; settings: read-out: Activity
[9] = tested on: HOP-62; assay: Growth inhibition of human HOP62 cells assessed as cell growth at 10^-4 M by sulforhodamine B assay; settings: read-out: Activity
[10] = tested on: SNB-19; assay: Growth inhibition of human SNB19 cells assessed as cell growth at 10^-6 M by sulforhodamine B assay; settings: read-out: Activity
[11] = tested on: KM12; assay: Growth inhibition of human KM12 cells assessed as cell growth at 10^-4 M by sulforhodamine B assay; settings: read-out: Activity
[12] = tested on: 786-0; assay: Growth inhibition of human 786-0 cells assessed as cell growth at 10 uM by sulforhodamine B assay; settings: read-out: Activity
[13] = tested on: UO-31; assay: Growth inhibition of human UO31 cells assessed as cell growth at 10 uM by sulforhodamine B assay; settings: read-out: Activity
[14] = tested on: LOX IMVI; assay: Growth inhibition of human LOXIMVI cells assessed as cell growth at 10^-4 M by sulforhodamine B assay; settings: read-out: Activity
[15] = tested on: UACC-257; assay: Growth inhibition of human UACC257 cells assessed as cell growth at 10^-4 M by sulforhodamine B assay; settings: read-out: Activity
[16] = tested on: TK-10; assay: Growth inhibition of human TK10 cells assessed as cell growth at 10 uM by sulforhodamine B assay; settings: read-out: Activity
[17] = tested on: COLO 205; assay: Growth inhibition of human COLO205 cells assessed as cell growth at 10^-4 M by sulforhodamine B assay; settings: read-out: Activity
[18] = tested on: SK-MEL-2; assay: Growth inhibition of human SK-MEL-2 cells by sulforhodamine B assay
[19] = tested on: OVCAR-8; assay: Growth inhibition of human OVCAR8 cells assessed as growth inhibition at 10 uM by sulforhodamine B assay; settings: read-out: GI
[20] = tested on: T47D; assay: Growth inhibition of human T47D cells assessed as cell growth at 10^-6 M by sulforhodamine B assay; settings: read-out: Activity
[21] = tested on: SNB-19; assay: Growth inhibition of human SNB19 cells assessed as growth inhibition at 10 uM by sulforhodamine B assay; settings: read-out: GI
[22] = tested on: SR; assay: Growth inhibition of human SR cells assessed as cell growth at 10^-7 M by sulforhodamine B assay; settings: read-out: Activity
[23] = tested on: HOP-62; assay: Growth inhibition of human HOP62 cells assessed as cell growth at 10^-8 M by sulforhodamine B assay; settings: read-out: Activity
[24] = tested on: HCT-15; assay: Growth inhibition of human HCT15 cells assessed as cell growth at 10^-7 M by sulforhodamine B assay; settings: read-out: Activity
[25] = tested on: RPMI-8226; assay: Growth inhibition of human RPMI8226 cells assessed as cell growth at 10^-7 M by sulforhodamine B assay; settings: read-out: Activity
[26] = Growth inhibition of human EKVX cells assessed as cell growth at 10 uM by sulforhodamine B assay; settings: read-out: Activity
[27] = tested on: SNB-19; assay: Growth inhibition of human SNB19 cells assessed as cell growth at 10 uM by sulforhodamine B assay; settings: read-out: Activity
[28] = tested on: HT-29; assay: Growth inhibition of human HT-29 cells assessed as cell growth at 10 uM by sulforhodamine B assay; settings: read-out: Activity
[29] = Growth inhibition of human NCI-ADR-RES cells assessed as growth inhibition at 10 uM by sulforhodamine B assay; settings: read-out: GI
[30] = Growth inhibition of human Hs 578T cells assessed as growth inhibition at 10 uM by sulforhodamine B assay; settings: read-out: GI
[31] = tested on: A498; assay: Growth inhibition of human A498 cells assessed as cell growth at 10 uM by sulforhodamine B assay; settings: read-out: Activity
[32] = tested on: NCI-H322M; assay: Growth inhibition of human NCI-H322M cells assessed as cell growth at 10^-7 M by sulforhodamine B assay; settings: read-out: Activity
[33] = tested on: HCT-15; assay: Growth inhibition of human HCT15 cells assessed as growth inhibition at 10 uM by sulforhodamine B assay; settings: read-out: GI
[34] = tested on: PC-3; assay: Growth inhibition of human PC3 cells assessed as cell growth at 10^-7 M by sulforhodamine B assay; settings: read-out: Activity
[35] = tested on: DU-145; assay: Growth inhibition of human DU145 cells assessed as cell growth at 10 uM by sulforhodamine B assay; settings: read-out: Activity
[36] = tested on: KM12; assay: Growth inhibition of human KM12 cells assessed as growth inhibition at 10 uM by sulforhodamine B assay; settings: read-out: GI
[37] = tested on: HCT-15; assay: Growth inhibition of human HCT15 cells by sulforhodamine B assay
[38] = tested on: NCI-H226; assay: Growth inhibition of human NCI-H226 cells assessed as cell growth at 10^-7 M by sulforhodamine B assay; settings: read-out: Activity
[39] = tested on: K562; assay: Growth inhibition of human K562 cells assessed as cell growth at 10 uM by sulforhodamine B assay; settings: read-out: Activity
[40] = tested on: HCT-15; assay: Growth inhibition of human HCT15 cells assessed as cell growth at 10^-6 M by sulforhodamine B assay; settings: read-out: Activity
[41] = tested on: OVCAR-8; assay: Growth inhibition of human OVCAR8 cells assessed as cell growth at 10^-8 M by sulforhodamine B assay; settings: read-out: Activity
[42] = tested on: SK-OV-3; assay: Growth inhibition of human SKOV3 cells assessed as cell growth at 10 uM by sulforhodamine B assay; settings: read-out: Activity
[43] = tested on: COLO 205; assay: Growth inhibition of human COLO205 cells assessed as cell growth at 10 uM by sulforhodamine B assay; settings: read-out: Activity
[44] = tested on: ACHN; assay: Growth inhibition of human ACHN cells assessed as growth inhibition at 10 uM by sulforhodamine B assay; settings: read-out: GI
[45] = tested on: SF-295; assay: Growth inhibition of human SF295 cells assessed as cell growth at 10^-6 M by sulforhodamine B assay; settings: read-out: Activity
[46] = tested on: SK-MEL-5; assay: Growth inhibition of human SK-MEL-5 cells assessed as growth inhibition at 10 uM by sulforhodamine B assay; settings: read-out: GI
[47] = read-out: LC50 (the source's name)
[48] = read-out: pLC50 (the source's name) (converted)

Question: For `CC(C)=CC(=O)O[C@@H]1CC(C)(C)C[C@H]2C3=CC[C@@H]4[C@@]5(C)CC[C@H](O)C(C)(C)[C@@H]5CC[C@@]4(C)[C@]3(C)CC[C@@]12C(=O)O` [Reduced Lantadene B], which growth at 0.1 µM [1] is on record?
Answer: 98%

Question: And the GI50 ([2]; read-out: GI50)?
Answer: 6.61 µM

Question: And the CC50 [2, 47]?
Answer: 72.1 µM

Question: What about the TGI ([2]; read-out: TGI) of the same compound?
Answer: 24.2 µM

Question: And the GI50 ([2]; read-out: pGI50 (converted))?
Answer: 6.61 µM

Question: What about the CC50 [2, 48] of the same compound?
Answer: 72.4 µM

Question: And the TGI ([2]; read-out: pTGI (converted))?
Answer: 24 µM

Question: And the growth at 10 µM [3]?
Answer: 66.9%

Question: What about the growth at 0.1 µM [4] of the same compound?
Answer: 96%

Question: What about the inhibition of growth at 10 µM [5] of the same compound?
Answer: 13.5%

Question: And the inhibition of growth at 10 µM [6]?
Answer: < 10%

Question: And the inhibition of growth at 10 µM [7]?
Answer: 13.3%

Question: What about the growth at 100 µM [8] of the same compound?
Answer: -17%

Question: What about the growth at 100 µM [9] of the same compound?
Answer: -60%

Question: What about the growth at 1 µM [10] of the same compound?
Answer: 86%

Question: And the growth at 100 µM [11]?
Answer: -47%

Question: And the growth at 10 µM [12]?
Answer: 61.8%

Question: And the growth at 10 µM [13]?
Answer: 60.9%

Question: What about the growth at 100 µM [14] of the same compound?
Answer: -35%

Question: And the growth at 100 µM [15]?
Answer: -34%

Question: What about the growth at 10 µM [16] of the same compound?
Answer: 79.9%

Question: And the growth at 100 µM [17]?
Answer: -52%

Question: And the GI50 ([18]; read-out: GI50)?
Answer: 9.34 µM

Question: And the CC50 [18, 47]?
Answer: 67 µM

Question: And the TGI ([18]; read-out: TGI)?
Answer: 25.4 µM

Question: What about the GI50 ([18]; read-out: pGI50 (converted)) of the same compound?
Answer: 9.33 µM

Question: And the CC50 [18, 48]?
Answer: 67.6 µM

Question: What about the TGI ([18]; read-out: pTGI (converted)) of the same compound?
Answer: 25.7 µM

Question: What about the inhibition of growth at 10 µM [19] of the same compound?
Answer: 40.1%

Question: What about the growth at 1 µM [20] of the same compound?
Answer: 96%

Question: What about the inhibition of growth at 10 µM [21] of the same compound?
Answer: 14.4%

Question: And the growth at 0.1 µM [22]?
Answer: 104%

Question: What about the growth at 0.01 µM [23] of the same compound?
Answer: 85%

Question: And the growth at 0.1 µM [24]?
Answer: 87%

Question: What about the growth at 0.1 µM [25] of the same compound?
Answer: 92%

Question: What about the growth at 10 µM [26] of the same compound?
Answer: 47.7%

Question: And the growth at 10 µM [27]?
Answer: 85.6%

Question: And the growth at 10 µM [28]?
Answer: 49.3%

Question: What about the inhibition of growth at 10 µM [29] of the same compound?
Answer: 45.5%

Question: What about the inhibition of growth at 10 µM [30] of the same compound?
Answer: 14.5%

Question: What about the growth at 10 µM [31] of the same compound?
Answer: 100%

Question: And the growth at 0.1 µM [32]?
Answer: 89%

Question: What about the inhibition of growth at 10 µM [33] of the same compound?
Answer: 74.9%

Question: What about the growth at 0.1 µM [34] of the same compound?
Answer: 90%

Question: And the growth at 10 µM [35]?
Answer: 86.6%

Question: And the inhibition of growth at 10 µM [36]?
Answer: 65.7%

Question: And the GI50 ([37]; read-out: GI50)?
Answer: 1.56 µM

Question: And the LC50 (50% lethal concentration) ([37]; read-out: LC50)?
Answer: > 100 µM

Question: What about the TGI ([37]; read-out: TGI) of the same compound?
Answer: 19.2 µM

Question: What about the GI50 ([37]; read-out: pGI50 (converted)) of the same compound?
Answer: 1.55 µM

Question: What about the LC50 (50% lethal concentration) ([37]; read-out: pLC50 (converted)) of the same compound?
Answer: > 100 µM

Question: What about the TGI ([37]; read-out: pTGI (converted)) of the same compound?
Answer: 19.1 µM

Question: What about the growth at 0.1 µM [38] of the same compound?
Answer: 88%

Question: And the growth at 10 µM [39]?
Answer: 45.2%

Question: And the growth at 1 µM [40]?
Answer: 58%

Question: And the growth at 0.01 µM [41]?
Answer: 101%

Question: What about the growth at 10 µM [42] of the same compound?
Answer: 89.4%

Question: What about the growth at 10 µM [43] of the same compound?
Answer: 68.1%

Question: And the inhibition of growth at 10 µM [44]?
Answer: 53.7%

Question: What about the growth at 1 µM [45] of the same compound?
Answer: 59%

Question: And the inhibition of growth at 10 µM [46]?
Answer: 38.5%

From ChEMBL document CHEMBL2413072, “Synthesis and in vitro anticancer studies of novel C-2 arylidene congeners of lantadenes” (2013)
